In data set [1] the test system is primary culture of human hepatocytes. The data set can be described thus: Morphology of primary human hepatocytes during treatment. The class given is cell-based. As to conditions: cells exposed to Compound 1 compared with control cells. The protocol: (§1) Upon receiving a primary culture of human hepatocytes in 6-well plates, the culture medium containing streptomycin/penicillin was refreshed (2 ml/well). […] Compound 1 stock solution was added to the culture medium at a 1:400 ratio (v/v). The culture medium and testing compounds were replenished every 24 hours.

Another data set relates to CYP1A1/2. The data set can be described thus: CYP induction in primary human hepatocytes, Western immunoblotting: CYP1A1/2. The class given is cell-based. As to conditions: 10 or 50 μM for 72 hours; hepatocytes from three donors. The protocol:
as §1
At the end of the treatment, the cells were harvested into 1 mL of phosphate-buffered saline (PBS) after washing twice. The cells were precipitated by centrifugation, and were resuspended in PBS (approximately 50 μL). The sample preparation, after mixing with […] of Laemmli buffer (62.5 mM Tris-HCl containing 2% SDS, 25% glycerol, and 0.01% bromophenol, pH 6.8) and being rocked for 2-4 hours, was mixed with 10 μL of 2-mercaptoethanol, and heated at 90° C. for 10 minutes before electrophoresis.
Proteins were resolved in a 12% SDS-PAGE gel using a mini gel apparatus at a constant voltage ([…]) for 70-80 minutes, and transferred onto a polyvinylidene difluoride (PVDF) membrane using a membrane-transferring unit at a constant voltage ([…]) for 60 minutes. The membrane was blocked by 5% non-fat dried milk (NFDM) blotting buffer (PBS containing 0.05% Tween 20) at 4° C. overnight. […] CYP proteins were detected by […] using an X-ray developer.
Background: Immunoblotting shows a protein as a band on a membrane.

The test system of another data set is CYP3A4/5. Description: CYP induction in primary human hepatocytes, Western immunoblotting: CYP3A4/5. As to conditions: 10 or 50 μM for 72 hours; hepatocytes from three donors. The class given is cell-based. As for the experimental part:
(§2) Upon receiving a primary culture of human hepatocytes in 6-well plates, the culture medium containing streptomycin/penicillin was refreshed (2 ml/well). […] The culture medium and testing compounds were replenished every 24 hours.
(§3) At the end of the treatment, the cells were harvested into 1 mL of phosphate-buffered saline (PBS) after washing twice. The cells were precipitated by centrifugation, and were resuspended in PBS (approximately 50 μL).
(§4) The membrane was blocked by 5% non-fat dried milk (NFDM) blotting buffer (PBS containing 0.05% Tween 20) at 4° C. overnight. […] The membrane was rinsed six times (10 minutes each time) with the blotting buffer, and exposed to 1:10,000 diluted secondary antibodies labeled with horseradish peroxidase for 1 hour at room temperature. After being extensively rinsed with the blotting buffer, the membrane was exposed to the substrate of peroxidase (enhanced chemiluminescence reagent). CYP proteins were detected by […] using an X-ray developer.

A further data set deals with CYP2C19/2C8/2C9. The data set can be described thus: CYP induction in primary human hepatocytes, Western immunoblotting: CYP2C19/2C8/2C9. In kind it is cell-based. As to conditions: 10 or 50 μM for 72 hours; hepatocytes from three donors. As for the experimental part: as §2, §3, §4
In data set [2] the test system is pooled human liver microsomal preparations (HLM). Description: Compound 1 metabolism / metabolite formation in reconstituted system with pooled HLM. In kind it is in vitro ADME. The following applies: estimated by UV absorbance at 270 nm, metabolite formed or Compound 1 left after 1 hour with NADPH. The protocol:
The metabolism of Compound 1 was determined by the disappearance of Compound 1 or the appearance of Compound 1 metabolites in reaction mixtures as compared to respective controls. Compound 1 was incubated in the reconstituted in vitro reaction systems containing pooled human liver S9 fractions, microsomal preparations, or recombinant hepatic CYP forms, including CYP1A2, CYP2C9, CYP2C19, CYP2D6, CYP2E1, and CYP3A4. The reaction mixture (total volume of 250 μL) contained 0.5 mg of liver microsomal protein, 50 or 25 pmol of recombinant CYP, and Compound 1 (50-80 μM) in 50 mM Tris buffer containing 15 mM MgCl2 (pH 7.4). After incubating at 37° C. with gentle shaking for 1 minute, the reaction was initiated by adding 25 μL of NADPH solution (20 mg/mL), and was carried out for 1 hour. The reaction was terminated by quickly cooling the test tube on ice, followed by the addition of an equal volume of 100% methanol. The samples were centrifuged in a desktop centrifuge at 14,000 rpm for 5 minutes, and the supernatants were filtered through syringe filters (13 mm, 0.45 μm). The filtrates were subjected to analysis using LC/MS (ion trap) or LC/MS/MS.
1. […] The detector was monitored at 270 nm, which is the UVmax of Compound 1 predetermined by scanning between 225-400 nm using a photodiode array detector (PDA). […]

In the case of `CNC(=O)Cc1ccc2ccn(C3CCN(CCc4ccccc4F)CC3)c2c1` [Compound 1, N-methyl-[1-[1-(2-fluorophenethyl)piperidine-4-yl]-1H-indol-6-yl] acetamide], the “morphologic changes of hepatocytes” value in data set [1] is “marked morphologic changes were not observed”. The “expression of CYP1A1/2 (Western immunoblotting)” value with CYP1A1/2 is “did not increase”. Moreover, the “expression of CYP3A4/5 (Western immunoblotting)” value in the data set on CYP3A4/5 was “did not increase”. In the data set on CYP2C19/2C8/2C9, the “expression of CYP2C19/2C8/2C9 (Western immunoblotting)” value is listed as “did not increase”. Moreover, the “Rel. Amount (%)” value in data set [2] is 36%.

The values above are taken from patent publication US20050033056A1, “Hydroxylated indole derivatives and uses thereof” (priority 2001, published 2005).
